Measurements published in patent publication US10905148B2, “Systems and methods for monitoring of blood lactate and targeting of blood lactate via nutritional support” (Run Them Sweet LLC, priority 2012, dated 2021).

Columns and labels:
[1] = test system: lipases and esterases in human plasma; settings: cited from earlier work
[2] = infusions of 2N Na+-Pyruvate into swine; cited from earlier work
[3] = cited from earlier work
[4] = test system: lactate dehydrogenase in red blood cells and the lung parenchyma; settings: due to lactate dehydrogenase in red blood cells and lung parenchyma; cited from earlier work
[5] = aqueous conditions; cited from earlier work
[6] = Osmolality of infusion solutions; format: physicochemical
Procedure: In its simplest form, the MCC cocktail would be sodium-L-(+)-Lactate prepared by titrating L-(+)-Lactic acid with NaOH. The following describe such procedures: (24, 52, 55-57). Briefly, the MCC infusion cocktail is prepared by mixing concentrated (30-88%) L-(+)-lactic acid solution (e.g., Sigma-Aldrich or PCCA) in 2 N NaOH to pH 4.8. In the example provided, the starting point is a 30% stock lactic acid solution: 300 g 30% lactic acid stock solution is titrated with 133.3 g 2N NaOH and diluted to 1,000 ml with water. This will produce a 11.2% weight-by-volume (“w/v”) MCC cocktail (sodium-L-(+)-Lactate) with an osmolality approximating 2,000 mOsm/l. Depending on the stock lactic acid solution used, a NaOH titrating solution>2 N may be necessary to neutralize stock lactic acid without exceeding the intended volume. Regardless of the specifics of acid titration, a 1.72% Na^+-lactate aqueous solution is isosmotic (308 mOsm/l); consequently, as initially mixed the above described MCC is far too concentrated to be given in a peripheral vein and will need to be diluted to less than 1,000 mOsm/l (a 5.6% Na^+-lactate solution). In a peripheral arm vein and a 5.0-5.6% Na^+-lactate MCC should be given with normal (0.9%, 308 mOsm/l) saline or another isosmotic solution such as […] (dextrose) in water, commonly called D5W (see more below).
In another version of the simplest form, the MCC cocktail would be sodium-L-(+)-Lactate prepared from the dry, powdered salt in deionized water to the concentration intended [e.g., for an isosmotic solution: 154 mM lactate (plus 154 mM Na^+) total osmolarity 308 mOsm/l], and infused in the above-stated amounts to raise arterial [lactate] to the intended levels.
State of the art is to provide parenteral nutritive support to patients using 5% dextrose (D5W, glucose in water, vide supra). Because glucose (dextrose) has a molecular weight of 180, osmolality of D5W is 278 mM, which in the low range of normal plasma osmolality ([…]). Even though the glucose concentration in D5W is 50 times greater than homeostatic in plasma, in terms of its isosmotic effect with glucose alone being the only solute, D5W is isosmotic. Mixing equal isosmotic solutions such as equal volumes of 154 mM Sanguisal-L and D5W glucose will produce an osmolality in the high end of the normal range. As noted earlier, this slightly elevated osmolality because of sodium content will draw fluid from tissues into the vascular compartment, thus mitigating swelling due to injury (15).

[7] = lactate clamp procedure, exogenous lactate

For `CC(O)C(=O)OCC(COC(=O)C(C)O)OC(=O)C(C)O` (stereo not drawn) [Glycerol tri-lactate, glycerol tri-lactate], the “dissociation of individual units in human plasma” value ([1]; lipases and esterases in human plasma) is listed as “rapidly dissociate”.
In the case of `CC(=O)C(=O)[O-].[Na+]` [Na^+-Pyruvate, sodium-L-(+)-Pyruvate], the “arterial [lactate]” value [2] is listed as 8 mM and the “arterial [pyruvate]” value [2] is listed as 3.5 mM.
For `CC(O)C(=O)O` (stereo not drawn) [lactate, 2-hydroxy-propionate], the “safety of route and amount of vascular lactate administration” value ([3]; approximately 3 mg/kg/min, vascular) is given as “safe”, the “blood pH” value [3, 7] is given as “raises pH” and the “effects on plasma electrolytes” value [3, 7] is given as “without major effects”. For the same compound, the side effects ([3]; oral or intravenous administration) was “no apparent side effects except mild alkalosis”.
In the case of `CC(=O)C(=O)O` [pyruvate], the conversion in circulation/blood [4] is listed as “rapidly converted to lactate” and the “stability in aqueous solutions” value [5] is listed as “spontaneous degradation”.
For `C[C@H](O)C(=O)[O-].[Na+]` [sodium-L-(+)-Lactate], the total osmolarity ([6]; 154 mM lactate plus 154 mM Na+, isosmotic solution) was 308 mOsm/l, the osmolality ([6]; 1.72% aqueous solution, isosmotic) was 308 mOsm/l and the osmolality ([6]; 5.6% solution) was 1,000 mOsm/l. The osmolality ([6]; 11.2% w/v MCC cocktail) was ~2,000 mOsm/l and the “higher blood lactate levels seen/used without ill effects” value ([3]; sodium lactate MCC infusion) was 6 mM.
For Arginyl lactate, the “dissociation of individual units at neutral pH” value ([1]; neutral pH as exists in human plasma) is given as “dissociate spontaneously”.
